Active and inactive are the calls of the source. The calls are words filed in the database; no cut-off is given here.
Assays:
[1] = system: Rattus norvegicus; test: Uterotrophic activity in spayed Wistar rat assessed as autopsies by measuring uterus weight at 0.1 umol, po after 1 week (reference value: 15.1 +/- 0.51 mg); type: functional
[2] = system: Rattus norvegicus; test: Uterotrophic activity in spayed Wistar rat assessed as autopsies by measuring uterus weight at 0.1 umol, po after 2 weeks (reference value: 15.9 +/- 0.50 mg); type: functional

Compound `CC(=O)[C@H]1CC[C@H]2[C@@H]3CC=C4C=C(O[C@H]5CC[C@H]6[C@@H]7CCc8cc(OC(=O)c9ccccc9)ccc8[C@H]7CC[C@]56C)CC[C@]4(C)[C@H]3CC[C@]12C` has an Activity [1] of 26.3 mg and an Activity [2] of 20.6 mg.

Compound `C#C[C@]1(OC(=O)CCCCCC)CC[C@H]2[C@@H]3CC=C4C=C(O[C@H]5CC[C@H]6[C@@H]7CCc8cc(OC9CCCC9)ccc8[C@H]7CC[C@]56C)CC[C@@H]4[C@H]3CC[C@@]21C` has an Activity [1] of 19.8 mg and an Activity [2] of 15.2 mg.

With `C[C@]12CC[C@H]3[C@@H](CC=C4C=C(O[C@H]5CC[C@H]6[C@@H]7CCc8cc(OC(=O)c9ccccc9)ccc8[C@H]7CC[C@]56C)CC[C@@H]43)[C@@H]1CC[C@@H]2OC(=O)c1ccccc1` the Activity [1] was 31.3 mg and the Activity [2] was 18.1 mg.

In the case of `CC(=O)O[C@H]1CC[C@H]2[C@@H]3CC=C4C=C(O[C@H]5CC[C@H]6[C@@H]7CCc8cc(OC(=O)c9ccccc9)ccc8[C@H]7CC[C@]56C)CC[C@@H]4[C@H]3CC[C@]12C`, the Activity [1] is reported as 48 mg and the Activity [2] is reported as 31.6 mg.

Compound `CC(=O)O[C@H]1CC[C@H]2[C@@H]3CC[C@H]4C=C(O[C@H]5CC[C@H]6[C@@H]7CCc8cc(OC(=O)c9ccccc9)ccc8[C@H]7CC[C@]56C)C=C[C@]4(C)[C@H]3CC[C@]12C` has an Activity [1] of 21.3 mg and an Activity [2] of 20.1 mg.

With `C#C[C@]1(OC(=O)CCCCCC)CC[C@H]2[C@@H]3CC=C4C=C(O[C@H]5CC[C@H]6[C@@H]7CCc8cc(O)ccc8[C@H]7CC[C@]56C)CC[C@@H]4[C@H]3CC[C@@]21C` the Activity [1] was 33.8 mg and the Activity [2] was 22.1 mg.

For `C#C[C@]1(O)CC[C@H]2[C@@H]3CC=C4C=C(O[C@H]5CC[C@H]6[C@@H]7CCc8cc(O)ccc8[C@H]7CC[C@]56C)CC[C@@H]4[C@H]3CC[C@@]21C`, the Activity [1] was 40.5 mg and the Activity [2] was 23.3 mg.

`C[C@]12CC[C@@H]3c4ccc(O)cc4CC[C@H]3[C@@H]1CC[C@@H]2OC1=CC2=CC[C@@H]3[C@H](CC[C@@]4(C)[C@H]3CC[C@]4(C)O)[C@@]2(C)CC1` gave an Activity [1] of 48.1 mg and an Activity [2] of 33.5 mg.

In the case of `C#C[C@]1(OC(C)=O)CC[C@H]2[C@@H]3CC=C4C=C(O[C@H]5CC[C@H]6[C@@H]7CC(=O)c8cc(OC(=O)c9ccccc9)ccc8[C@H]7CC[C@]56C)CC[C@@H]4[C@H]3CC[C@@]21C`, the Activity [1] is reported as “inactive” and the Activity [2] is reported as “inactive”.

In the case of `C[C@]12CCC(O[C@H]3CC[C@H]4[C@@H]5CCc6cc(O)ccc6[C@H]5CC[C@]34C)C[C@@H]1CC[C@@H]1[C@@H]2CC[C@]2(C)[C@@H](O)CC[C@@H]12` (some centres undefined), the Activity [1] is reported as “inactive” and the Activity [2] is reported as “inactive”.

`CC(=O)[C@H]1CC[C@H]2[C@@H]3CC=C4C=C(O[C@H]5CC[C@H]6[C@@H]7CCc8cc(OC(=O)c9ccccc9)ccc8[C@H]7CC[C@]56C)CC[C@@H]4[C@H]3CC[C@]12C` gave an Activity [1] of 29.1 mg and an Activity [2] of 28.5 mg.

In the case of `CCC(=O)O[C@H]1CC[C@H]2[C@@H]3CC=C4C=C(O[C@H]5CC[C@H]6[C@@H]7CCc8cc(OC(=O)c9ccccc9)ccc8[C@H]7CC[C@]56C)CC[C@]4(C)[C@H]3CC[C@]12C`, the Activity [1] is reported as 49.4 mg and the Activity [2] is reported as 31 mg.

For `C#C[C@]1(OC(C)=O)CC[C@H]2[C@@H]3CC=C4C=C(O[C@H]5CC[C@H]6[C@@H]7CCc8ccccc8[C@H]7CC[C@]56C)CC[C@@H]4[C@H]3CC[C@@]21C`, the Activity [1] was “inactive” and the Activity [2] was “inactive”.

In the case of `C#C[C@@]1(OC(C)=O)CC[C@H]2[C@@H]3CC=C4C=C(O[C@H]5CC[C@H]6[C@@H]7CCc8cc(OC(=O)c9ccccc9)ccc8[C@H]7CC[C@]56C)CC[C@@H]4[C@H]3CC[C@@]21C`, the Activity [1] is reported as “inactive” and the Activity [2] is reported as “inactive”.

In the case of `C#C[C@@]1(O)CC[C@H]2[C@@H]3CC=C4C=C(O[C@H]5CC[C@H]6[C@@H]7CCc8cc(O)ccc8[C@H]7CC[C@]56C)CC[C@@H]4[C@H]3CC[C@@]21C`, the Activity [1] is reported as “inactive” and the Activity [2] is reported as “inactive”.

`C[C@]12CC[C@@H]3c4ccc(OC5CCCC5)cc4CC[C@H]3[C@@H]1CC[C@@H]2OC1=CC2=CC[C@@H]3[C@H](CC[C@]4(C)[C@@H](O)CC[C@@H]34)[C@H]2CC1` was tested, and the Activity [1] was 35.8 mg and the Activity [2] was 27.1 mg.

With `CCC(=O)O[C@H]1CC[C@H]2[C@@H]3CC[C@H]4CC(O[C@H]5CC[C@H]6[C@@H]7CCc8cc(OC(=O)c9ccccc9)ccc8[C@H]7CC[C@]56C)CC[C@]4(C)[C@H]3CC[C@]12C` (some centres undefined) the Activity [1] was “inactive” and the Activity [2] was “inactive”.

For `C[C@]12CC[C@@H]3c4ccc(OC(=O)CCC(=O)O)cc4CC[C@H]3[C@@H]1CC[C@@H]2OC1=CC2=CC[C@@H]3[C@H](CC[C@]4(C)C(=O)CC[C@@H]34)[C@H]2CC1`, the Activity [1] was 60.7 mg and the Activity [2] was 36.8 mg.

With `C[C@]12CC[C@@H]3c4ccc(OC(=O)c5ccccc5)cc4CC[C@H]3[C@@H]1CC[C@@H]2OC1=CC2=CC[C@@H]3[C@H](CC[C@]4(C)C(=O)CC[C@@H]34)[C@@]2(C)CC1` the Activity [1] was 53 mg and the Activity [2] was 31.6 mg.

`C#C[C@]1(OC(=O)CCCCCC)CC[C@H]2[C@@H]3CC=C4C=C(O[C@H]5CC[C@H]6[C@@H]7CCc8cc(OC(=O)c9ccccc9)ccc8[C@H]7CC[C@]56C)CC[C@@H]4[C@H]3CC[C@@]21C` was tested, and the Activity [1] was 35.6 mg and the Activity [2] was 24.2 mg.

In the case of `C[C@]12CC[C@@H]3c4ccc(OC5CCCC5)cc4CC[C@H]3[C@@H]1CC[C@@H]2OC1=CC2=CC[C@@H]3[C@H](CC[C@]4(C)C(=O)CC[C@@H]34)[C@H]2CC1`, the Activity [1] is reported as 29.1 mg and the Activity [2] is reported as 26.2 mg.

For `CCC(=O)O[C@H]1CC[C@H]2[C@@H]3CC[C@H]4CC(O[C@H]5CC[C@H]6[C@@H]7CCc8cc(OC(=O)c9ccccc9)ccc8[C@H]7CC[C@]56C)=CC[C@]4(C)[C@H]3CC[C@]12C`, the Activity [1] was 23.3 mg and the Activity [2] was 21.3 mg.

With `C#C[C@]1(OC(C)=O)CC[C@H]2[C@@H]3CC=C4C=C(O[C@H]5CC[C@H]6[C@@H]7CCc8cc(OC(=O)CCC)ccc8[C@H]7CC[C@]56C)CC[C@@H]4[C@H]3CC[C@@]21C` the Activity [1] was 26.5 mg and the Activity [2] was 18.3 mg.

Compound `C#C[C@]1(OC(=O)CCCCCC)CC[C@H]2[C@@H]3CC=C4C=C(O[C@H]5CC[C@H]6[C@@H]7CCc8cc(OC(C)=O)ccc8[C@H]7CC[C@]56C)CC[C@@H]4[C@H]3CC[C@@]21C` has an Activity [1] of 31.7 mg and an Activity [2] of 28.7 mg.

Work on `C[C@]12CC[C@@H]3c4ccc(O)cc4CC[C@H]3[C@@H]1CC[C@@H]2OC1=CC2=CC[C@H]3[C@@H]4CC[C@H](O)[C@@]4(C)CC[C@@H]3[C@@]2(C)CC1` yielded an Activity [1] of 50.2 mg and an Activity [2] of 36.8 mg.

In the case of `CC(=O)O[C@]1(C(C)=O)CC[C@H]2[C@@H]3CC=C4C=C(O[C@H]5CC[C@H]6[C@@H]7CCc8cc(OC(=O)c9ccccc9)ccc8[C@H]7CC[C@]56C)CC[C@]4(C)[C@H]3CC[C@@]21C`, the Activity [1] is reported as 27.5 mg and the Activity [2] is reported as 23.3 mg.

`C#C[C@]1(O)CC[C@H]2[C@@H]3CC=C4C=C(O[C@H]5CC[C@H]6[C@@H]7CCc8cc(OC(C)=O)ccc8[C@H]7CC[C@]56C)CC[C@@H]4[C@H]3CC[C@@]21C` was tested, and the Activity [1] was 39.2 mg and the Activity [2] was 32.7 mg.

`C#C[C@]1(OC(C)=O)CC[C@H]2[C@@H]3CC=C4C=C(O[C@H]5CC[C@H]6[C@@H]7CCc8cc(OC(C)=O)ccc8[C@H]7CC[C@]56C)CC[C@@H]4[C@H]3CC[C@@]21C` was tested, and the Activity [1] was 36.6 mg and the Activity [2] was 25.4 mg.

`C#C[C@]1(OC(=O)C(C)OCC)CC[C@H]2[C@@H]3CC=C4C=C(O[C@H]5CC[C@H]6[C@@H]7CCc8cc(OC(C)OCC)ccc8[C@H]7CC[C@]56C)CC[C@@H]4[C@H]3CC[C@@]21C` (some centres undefined) showed an Activity [1] of 23.6 mg and an Activity [2] of 18 mg.

Work on `C[C@]12CC[C@H]3[C@@H](CC=C4C=C(O[C@H]5CC[C@H]6[C@@H]7CCc8cc(OC9CCCC9)ccc8[C@H]7CC[C@]56C)CC[C@@H]43)[C@@H]1CC[C@@H]2OC(=O)CCC(=O)O` yielded an Activity [1] of 28.9 mg and an Activity [2] of 31.8 mg.

Work on `C#C[C@]1(OC(C)=O)CC[C@H]2[C@@H]3CC=C4C=C(O[C@H]5CC[C@H]6[C@@H]7CCc8cc(OC9CCCC9)ccc8[C@H]7CC[C@]56C)CC[C@@H]4[C@H]3CC[C@@]21C` yielded an Activity [1] of 17.9 mg.

In the case of `C#C[C@]1(OC(C)=O)CC[C@H]2[C@@H]3CC=C4C=C(O[C@H]5CC[C@H]6[C@@H]7CCc8cc(OC(C)OCC)ccc8[C@H]7CC[C@]56C)CC[C@@H]4[C@H]3CC[C@@]21C` (some centres undefined), the Activity [1] is reported as 30.3 mg and the Activity [2] is reported as 19.3 mg.

In the case of `CC(=O)O[C@@]1(C)CC[C@H]2[C@@H]3CC=C4C=C(O[C@H]5CC[C@H]6[C@@H]7CCc8cc(OC(=O)c9ccccc9)ccc8[C@H]7CC[C@]56C)CC[C@]4(C)[C@H]3CC[C@@]21C`, the Activity [1] is reported as 26.4 mg and the Activity [2] is reported as 21.5 mg.

`C[C@]12CC[C@@H]3c4ccc(O)cc4CC[C@H]3[C@@H]1CC[C@@H]2OC1=CC2=CC[C@@H]3[C@H](CC[C@]4(C)[C@@H](O)CC[C@@H]34)[C@H]2CC1` was tested, and the Activity [1] was 59.9 mg and the Activity [2] was 41.6 mg.

In the case of `CCC(=O)O[C@H]1CC[C@H]2[C@@H]3CC[C@@H]4CC(O[C@H]5CC[C@H]6[C@@H]7CCc8cc(OC(=O)c9ccccc9)ccc8[C@H]7CC[C@]56C)CC[C@]4(C)[C@H]3CC[C@]12C` (some centres undefined), the Activity [1] is reported as “inactive” and the Activity [2] is reported as “inactive”.
